# Measured values: patent publication US7297707B2, “Benzothiazolyl derivatives” (Hoffmann-La Roche Inc., priority 2003, dated 2007)
# Molecular target: T1, human cannabis CB1 receptor (Homo sapiens, UniProt P21554)
# T1 construct: expressed in transfected cells; host or cells: human embryonic kidney (HEK) cells, Semliki Forest Virus system, membrane preparation
# Assay: Affinity for cannabinoid CB1 receptors, [3H]-CP-55,940 radioligand binding on HEK cell membranes
# Conditions: affinity for the CB1 receptor, [3H]-CP-55,940, HEK membranes
# Experimental: The affinity of the compounds of the invention for cannabinoid CB1 receptors was determined using membrane preparations of human embryonic kidney (HEK) cells in which the human cannabis CB1 receptor is transiently transfected using the Semliki Forest Virus system in conjunction with [3H]-CP-55,940 as radioligand. After incubation of a freshly prepared cell membrane preparation with the [3H]-ligand, with or without addition of compounds of the invention, separation of bound and free ligand was performed by filtration over glassfiber filters. Radioactivity on the filter was measured by liquid scintillation counting.
# T1 sequence (P21554 whole entry): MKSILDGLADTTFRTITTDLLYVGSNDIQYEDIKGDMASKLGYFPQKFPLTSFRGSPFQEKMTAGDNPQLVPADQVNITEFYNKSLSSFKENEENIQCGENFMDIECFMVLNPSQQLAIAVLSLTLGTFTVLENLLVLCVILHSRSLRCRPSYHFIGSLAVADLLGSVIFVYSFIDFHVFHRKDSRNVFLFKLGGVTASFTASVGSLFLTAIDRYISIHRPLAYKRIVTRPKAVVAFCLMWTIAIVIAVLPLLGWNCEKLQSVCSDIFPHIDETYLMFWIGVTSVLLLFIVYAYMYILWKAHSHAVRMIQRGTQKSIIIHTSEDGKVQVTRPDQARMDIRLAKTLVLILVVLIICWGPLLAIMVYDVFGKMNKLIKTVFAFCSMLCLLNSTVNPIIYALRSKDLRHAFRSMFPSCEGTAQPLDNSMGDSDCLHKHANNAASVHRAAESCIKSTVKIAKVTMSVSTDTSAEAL
row,IC50 [nM],SMILES
1,830,"COc1ccc(N(C(=O)c2ccc(Cl)cc2Cl)c2nc3ccc(N)cc3s2)cc1OC [Example 45, N-(6-Amino-benzothiazol-2-yl)-2,4-dichloro-N-(3,4-dimethoxy-phenyl)-benzamide]"
2,1420,"COc1ccc(N(C(=O)c2ccccc2Cl)c2nc3ccc(NS(=O)(=O)N(C)C)cc3s2)cc1OC [Example 57, N-[6-(Dimethylamino-1-sulfonylamino)-benzothiazol-2-yl]-2-chloro-N-(3,4-dimethoxy-phenyl)-benzamide]"
3,1590,"COc1ccc(N(C(=O)c2ccc(Cl)cc2Cl)c2nc3ccc(NC(=O)Cc4ccccc4)cc3s2)cc1OC [Example 52, 2,4-Dichloro-N-(3,4-dimethoxy-phenyl)-N-(6-phenylacetylamino-benzothiazol-2-yl)-benzamide]"
4,1960,"COc1ccc(N(C(=O)c2ccc(C(F)(F)F)cc2F)c2nc3ccccc3s2)cc1 [Example 9, N-Benzothiazol-2-yl-2-fluoro-N-(4-methoxy-phenyl)-4-trifluoromethyl-benzamide]"
5,730,"Cc1cc(Cl)ccc1N(C(=O)c1ccc(Cl)cc1Cl)c1nc2ccccc2s1 [Example 8, N-Benzothiazol-2-yl-2,4-dichloro-N-(4-chloro-2-methyl-phenyl)-benzamide]"
6,1380,"CCN(CC)c1ccc(N(C(=O)c2ccc([N+](=O)[O-])cc2Cl)c2nc3ccccc3s2)cc1 [Example 28, N-Benzothiazol-2-yl-2-chloro-N-(4-diethylamino-phenyl)-4-nitro-benzamide]"
7,2480,"COc1ccc(N(C(=O)c2ccc([N+](=O)[O-])cc2Cl)c2nc3ccccc3s2)cc1 [Example 12, N-Benzothiazol-2-yl-2-chloro-N-(4-methoxy-phenyl)-4-nitro-benzamide]"

# Test system: not given
# Assay: not given
# Conditions: doses of 5, 10 and 20 mg daily; cited from earlier work
row,SMILES,body weight compared to placebo
1,Cc1c(C(=O)NN2CCCCC2)nn(-c2ccc(Cl)cc2Cl)c1-c1ccc(Cl)cc1 [SR141716A],significantly reduced body weight
